From patent US20210290624A1, “METHODS OF TREATING CANCERS CHARACTERIZED BY A HIGH EXPRESSION LEVEL OF SPINDLE AND KINETOCHORE ASSOCIATED COMPLEX SUBUNIT 3 (SKA3) GENE” (UNIVERSITY HEALTH NETWORK, priority 2018, published 2021)

Tested on: breast cancer cell lines
Assay: sulforhodamine B (SRB) drug sensitivity assay in breast cancer cell line panel
Type: cell-based
Conditions: panel of 52 breast cancer cell lines, 5 days of treatment, FIG. 1
Text: A breast cancer cell line panel, previously described (Marcotte et al., Cell, 164(1-2), 2016293-309), was assembled for in vitro drug sensitivity profiling, and mated with available gene expression data. The RNA-seq reads were aligned to the Ensembl Genome Reference Consortium release GRCh38 using Kallisto pipeline (Bray et al., Nature Biotechnology, 201634(5), 525-527). Expression values were computed as log2(TPM+0.001), where TPM represents the number of transcripts per million mapped reads units which control for sequence length and sequencing depth. The status of SKA3 expression (high vs low expression) can be determined from a reference population such as the breast cancer TCGA cohort (see FIG. 6).
Response of breast cancer cell lines to compound CFI-402257 (a TTK inhibitor, see the structure below) was evaluated using sulforhodamine B (SRB) assays. The compound was synthesized as previously described (See Liu et al., ACS Medicinal Chemistry Letters, 20167(7), 671-675).
Cells were seeded in 96-well plates and treated with serial drug dilutions. After 5 days of treatment, cells were fixed, stained with SRB, solubilized, and absorbance quantified on a spectrophotometer. For all drug response assays, cell viabilities are reported as the proportion of growth in drug relative to DMSO treated conditions. […]

Cc1cc(-c2cnn3c(NC[C@H]4C[C@@](C)(O)C4)cc(Oc4cccnc4)nc23)ccc1C(=O)NC1CC1 [CFI-402257]
in vitro sensitivity (area above the drug dose-response curve, AAC): Differential in vitro sensitivity
